Measured values published in article PMC8155022 (Scientific Reports, 2021).
Where “and” joins values, the source holds several entries; their conditions need not be identical. Equal values may be shown once. Read-outs that look alike come from different tables or passages of the source.

What was measured:
[1] = molecular target: hGABAAα1β2γ2-gated Cl− channel (Homo sapiens, UniProt P14867+P18507+P47870); assay: follow-up functional study; assay type: cell-based; conditions: read-out: IC50 in follow-up functional studies
ORL1 (h) (NOP) = molecular target: T1, ORL1 (h) (NOP) (Homo sapiens, UniProt P41146); assay: Cerep panel; assay type: binding
T1 construct: purchased Cerep (receptors, ion channels, transporters); Eurofins Panlabs (kinases)
T1 sequence (P41146 whole entry): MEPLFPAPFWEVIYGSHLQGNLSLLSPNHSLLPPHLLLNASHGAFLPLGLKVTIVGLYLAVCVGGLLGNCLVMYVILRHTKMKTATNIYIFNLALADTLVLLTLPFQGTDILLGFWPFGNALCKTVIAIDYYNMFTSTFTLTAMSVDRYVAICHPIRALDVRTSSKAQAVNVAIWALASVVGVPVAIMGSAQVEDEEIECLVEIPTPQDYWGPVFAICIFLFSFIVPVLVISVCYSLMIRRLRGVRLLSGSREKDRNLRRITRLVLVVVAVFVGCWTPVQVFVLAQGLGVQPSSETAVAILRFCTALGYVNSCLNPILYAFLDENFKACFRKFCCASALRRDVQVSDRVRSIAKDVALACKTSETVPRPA
Description: (§2) A panel of 52 different receptors, ion channels and transporters was tested by Cerep, Inc. (Redmond, WA).

5HT2B = 5HT2B (Homo sapiens, UniProt P41595); assay: Cerep panel; assay type: binding; set-up: purchased Cerep (receptors, ion channels, transporters); Eurofins Panlabs (kinases)
Description: as §2

CAR = molecular target: T2, CAR (Homo sapiens, UniProt Q14994); assay: nuclear receptor cellular GAL4 reporter assay; assay type: cell-based; conditions: agonist and antagonist mode; read-out: potency in agonist and antagonist mode
T2 construct: expressed in transfected cells

Plk3(h) = molecular target: T3, Plk3(h) (Homo sapiens, UniProt Q9H4B4); assay: Kinase panel; assay type: biochemical
T3 construct: purchased Cerep (receptors, ion channels, transporters); Eurofins Panlabs (kinases)
T3 sequence (Q9H4B4 whole entry): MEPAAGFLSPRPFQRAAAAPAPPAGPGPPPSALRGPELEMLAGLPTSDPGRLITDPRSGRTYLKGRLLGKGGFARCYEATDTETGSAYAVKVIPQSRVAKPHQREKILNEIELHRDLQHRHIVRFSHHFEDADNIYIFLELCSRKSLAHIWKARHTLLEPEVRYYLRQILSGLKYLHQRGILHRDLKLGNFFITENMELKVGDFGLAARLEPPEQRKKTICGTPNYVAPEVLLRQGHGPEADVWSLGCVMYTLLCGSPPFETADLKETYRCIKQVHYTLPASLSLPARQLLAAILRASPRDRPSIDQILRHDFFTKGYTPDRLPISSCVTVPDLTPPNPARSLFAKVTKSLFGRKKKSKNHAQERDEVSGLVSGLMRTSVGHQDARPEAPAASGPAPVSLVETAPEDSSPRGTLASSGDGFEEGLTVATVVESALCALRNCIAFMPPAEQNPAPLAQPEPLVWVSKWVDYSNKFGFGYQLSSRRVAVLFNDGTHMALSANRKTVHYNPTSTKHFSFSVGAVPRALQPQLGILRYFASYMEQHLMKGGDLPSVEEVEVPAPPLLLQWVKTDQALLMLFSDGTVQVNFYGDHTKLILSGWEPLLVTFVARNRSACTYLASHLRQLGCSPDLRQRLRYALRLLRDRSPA
Description: (§3) Kinase selectivity was conducted by Eurofins Panlabs Inc (St Charles, MO).

5-HT3 (h) = molecular target: T4, 5-HT3 (h) (Homo sapiens, UniProt P46098); assay: Cerep panel; assay type: binding
T4 construct: purchased Cerep (receptors, ion channels, transporters); Eurofins Panlabs (kinases)
T4 sequence (P46098 24-478): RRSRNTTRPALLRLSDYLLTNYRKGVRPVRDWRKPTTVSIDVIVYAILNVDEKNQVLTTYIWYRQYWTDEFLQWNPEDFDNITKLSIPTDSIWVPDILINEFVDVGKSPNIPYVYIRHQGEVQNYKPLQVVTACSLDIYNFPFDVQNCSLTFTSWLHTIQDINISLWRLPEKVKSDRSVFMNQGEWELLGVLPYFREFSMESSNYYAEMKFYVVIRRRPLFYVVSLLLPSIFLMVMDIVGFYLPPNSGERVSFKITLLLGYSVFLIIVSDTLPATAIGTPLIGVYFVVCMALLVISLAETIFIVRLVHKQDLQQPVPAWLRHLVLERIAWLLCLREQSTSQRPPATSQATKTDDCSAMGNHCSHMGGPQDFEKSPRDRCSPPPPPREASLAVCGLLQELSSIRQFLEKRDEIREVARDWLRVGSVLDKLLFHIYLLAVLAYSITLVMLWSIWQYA
Description: as §2

ROCK-I(h) = molecular target: T5, ROCK-I(h) (Homo sapiens, UniProt Q13464); assay: Kinase panel; assay type: biochemical
T5 construct: purchased Cerep (receptors, ion channels, transporters); Eurofins Panlabs (kinases)
T5 sequence (Q13464 whole entry): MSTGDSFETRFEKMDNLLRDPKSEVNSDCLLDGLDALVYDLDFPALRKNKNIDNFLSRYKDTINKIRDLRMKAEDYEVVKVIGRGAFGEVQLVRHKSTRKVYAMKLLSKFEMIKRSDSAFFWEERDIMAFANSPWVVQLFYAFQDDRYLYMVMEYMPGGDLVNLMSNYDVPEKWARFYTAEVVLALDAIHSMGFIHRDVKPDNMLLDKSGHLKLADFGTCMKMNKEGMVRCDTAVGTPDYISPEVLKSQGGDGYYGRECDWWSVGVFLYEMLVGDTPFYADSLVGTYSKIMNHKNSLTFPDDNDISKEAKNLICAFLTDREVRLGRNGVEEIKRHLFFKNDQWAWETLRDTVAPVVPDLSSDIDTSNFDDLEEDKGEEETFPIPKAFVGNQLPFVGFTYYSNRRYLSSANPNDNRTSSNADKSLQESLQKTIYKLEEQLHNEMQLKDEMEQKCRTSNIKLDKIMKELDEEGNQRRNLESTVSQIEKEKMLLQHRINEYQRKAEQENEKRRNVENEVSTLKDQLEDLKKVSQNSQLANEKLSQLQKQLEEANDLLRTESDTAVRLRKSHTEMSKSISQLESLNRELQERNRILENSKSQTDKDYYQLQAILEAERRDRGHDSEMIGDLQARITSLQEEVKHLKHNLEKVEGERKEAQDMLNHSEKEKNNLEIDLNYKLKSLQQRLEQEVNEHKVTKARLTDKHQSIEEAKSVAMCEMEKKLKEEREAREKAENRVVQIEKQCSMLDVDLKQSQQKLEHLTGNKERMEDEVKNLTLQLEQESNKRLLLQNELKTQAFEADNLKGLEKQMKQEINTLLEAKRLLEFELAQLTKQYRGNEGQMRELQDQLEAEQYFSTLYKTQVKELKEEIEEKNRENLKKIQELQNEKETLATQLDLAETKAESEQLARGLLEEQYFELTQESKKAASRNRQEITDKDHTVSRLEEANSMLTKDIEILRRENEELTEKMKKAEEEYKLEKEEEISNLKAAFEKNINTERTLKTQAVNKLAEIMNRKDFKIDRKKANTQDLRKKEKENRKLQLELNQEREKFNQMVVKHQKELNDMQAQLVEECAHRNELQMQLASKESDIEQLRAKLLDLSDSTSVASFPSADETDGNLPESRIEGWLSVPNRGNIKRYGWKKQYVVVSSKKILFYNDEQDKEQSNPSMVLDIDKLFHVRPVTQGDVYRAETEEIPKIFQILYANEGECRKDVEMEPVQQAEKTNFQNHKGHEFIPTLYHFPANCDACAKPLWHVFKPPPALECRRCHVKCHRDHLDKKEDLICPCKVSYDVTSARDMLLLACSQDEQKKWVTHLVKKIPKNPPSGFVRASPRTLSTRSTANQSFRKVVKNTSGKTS
Description: as §3

[2] = test system: ex vivo stimulated IL-17A production; assay: phase 1 single ascending dose study, ex vivo stimulated IL-17A production in whole blood; set-up: species or system human
Description: The sampling was performed up to 120 h post-dose for cohort 1 (10 mg) and cohort 2 (30 mg), and extended to 504 h for cohort 3, 4 and 5.
Whole blood samples were collected on the morning of day 1 at pre-dose and at 1, 2, 6, 12, 24, 48, 96, and 120 h post-dose in Cohorts 1 and 2. For Cohort 3,4, and 5, samples were collected the morning of day 1 at pre-dose and at 2, 6, 12, 24, 48, 120, 312 and 504 h post-dose. Blood samples (1 ml) were drawn into TruCulture tubes (Myriad RBM, Austin, TX) which contained 2 ml of cocktail containing cell culture media and stimulants, then mixed and incubated at 37 °C in a block thermostat for 48 h. The final concentrations of the stimulants in the TruCulture tube incubations were: IL-23 (50 ng/ml), and IL-1β (10 ng/ml), with anti-CD3 and anti-CD28 antibodies at standard concentration as per standard CD3/CD28 TruCulture tubes. Negative control tubes (no stimulants) were also collected at each timepoint. Supernatants were collected after the end of the incubation period and analyzed to determine concentrations of induced IL-17A using a validated immunoassay method (human IL-17A V-plex kit from Meso Scale Discovery).

[3] = mouse PK/PD model, plasma exposure; assay type: in vivo; conditions: female, C57B6, mouse, 100 mg/kg oral
Description: Compound concentrations are also listed as undiluted (measured) and diluted (extrapolated) in Supplementary Table S2.

PXR = molecular target: T6, PXR (Homo sapiens, UniProt O75469); assay: nuclear receptor cellular GAL4 reporter assay; assay type: cell-based
T6 construct: expressed in transfected cells

[4] = 1-month GLP toxicity study in rats; assay type: in vivo; conditions: Sprague-Dawley, in vivo, rat; for AUC(0-t) / Cmax: po, 400 mg/kg/day; for AUC(0-t): read-out: AUC0-24 h at NOAEL; for Cmax: read-out: Cmax at NOAEL
Description: (§1) The type of study plan was reviewed and agreed by the Laboratory Animal Welfare Officer and the Animal Ethical Committee (officially known as Dierexperimentencommissie (DEC) Charles River Den Bosch), as required by the Dutch Act on Animal Experimentation (February 1997). Both rat and dog studies were performed in AALAC accredited Charles River Laboratories in the Netherlands. Studies in rats were conducted with 0, 25, 100, and 400 mg/kg per day (n = 10/sex/group) for 1 month. An additional 5 animals/sex in vehicle and high dose were allowed to continue for a 1-month treatment-free recovery period. Studies in dogs were conducted with 0, 3, 10, and 30 mg/kg per day (n = 4/sex/group) for 1 month. A treatment-free recovery period of 1 month (additional 2 dogs/sex/group) was included for both vehicle controls and high dose groups. […] Rats and dogs were examined for mortality, clinical signs, ophthalmoscopic changes, body weight, food consumption, hematology, clinical chemistry, anatomic pathology, and toxicokinetics. In addition, dogs were examined for electrocardiographic changes. Rats and dogs were also assessed for reversal of any effects following a 1-month recovery period. These studies were conducted in compliance with good laboratory practice (GLP) regulations.

Sprague–Dawley rats = assay: 1-month GLP toxicity study in rats; assay type: in vivo; conditions: rat; recovered after 1-month recovery period
Description: as §1

5HT2C = 5HT2C (Homo sapiens, UniProt P28335); assay: GPCR panel, cAMP or calcium FLIPR assays; assay type: cell-based
Chain of 5HT2C (P28335 33-458, species assumed): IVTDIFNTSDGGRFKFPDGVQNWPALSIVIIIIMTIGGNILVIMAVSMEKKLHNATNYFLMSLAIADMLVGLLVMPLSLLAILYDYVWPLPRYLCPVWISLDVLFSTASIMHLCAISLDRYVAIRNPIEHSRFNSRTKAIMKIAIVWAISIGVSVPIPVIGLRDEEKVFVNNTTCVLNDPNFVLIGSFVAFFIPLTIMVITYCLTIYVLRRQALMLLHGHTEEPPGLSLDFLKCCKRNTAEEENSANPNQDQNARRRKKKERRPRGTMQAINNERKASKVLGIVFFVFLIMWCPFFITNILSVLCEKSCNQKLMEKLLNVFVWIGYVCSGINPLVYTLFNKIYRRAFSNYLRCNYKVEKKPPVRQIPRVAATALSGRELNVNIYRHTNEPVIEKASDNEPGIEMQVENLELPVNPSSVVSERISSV
Description: (§4) 28 GPCRs were evaluated through cAMP or calcium FLIPR assays[67].

ADRA1A = ADRA1A (Homo sapiens, UniProt P35348); assay: GPCR panel, cAMP or calcium FLIPR assays; assay type: cell-based
Description: as §4

A1 (h) = molecular target: T7, A1 (h) (Homo sapiens, UniProt P30542); assay: Cerep panel; assay type: binding
T7 construct: purchased Cerep (receptors, ion channels, transporters); Eurofins Panlabs (kinases)
Description: as §2

V1A = V1A (Homo sapiens, UniProt P37288); assay: GPCR panel, cAMP or calcium FLIPR assays; assay type: cell-based
Chain of V1A (P37288 whole entry): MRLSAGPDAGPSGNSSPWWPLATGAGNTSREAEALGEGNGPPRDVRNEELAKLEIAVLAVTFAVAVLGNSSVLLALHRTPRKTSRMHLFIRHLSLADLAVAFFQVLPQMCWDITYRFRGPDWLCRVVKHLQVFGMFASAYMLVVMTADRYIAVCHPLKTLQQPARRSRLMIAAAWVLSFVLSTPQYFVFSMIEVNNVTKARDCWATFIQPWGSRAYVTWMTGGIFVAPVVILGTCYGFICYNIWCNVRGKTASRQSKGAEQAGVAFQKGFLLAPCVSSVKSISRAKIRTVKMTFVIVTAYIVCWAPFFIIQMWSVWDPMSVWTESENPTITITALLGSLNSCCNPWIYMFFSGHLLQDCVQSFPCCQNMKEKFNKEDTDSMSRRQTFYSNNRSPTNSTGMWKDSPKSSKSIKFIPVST
Description: 28 GPCRs were evaluated through cAMP or calcium FLIPR assays[67]. A panel of 52 different receptors, ion channels and transporters was tested by Cerep, Inc. (Redmond, WA). Kinase selectivity was conducted by Eurofins Panlabs Inc (St Charles, MO).

A2A = A2A (Homo sapiens, UniProt P29274); assay: GPCR panel, cAMP or calcium FLIPR assays; assay type: cell-based
Description: as §4

Flt3(h) = molecular target: T8, Flt3(h) (Homo sapiens, UniProt P36888); assay: Kinase panel; assay type: biochemical
T8 construct: purchased Cerep (receptors, ion channels, transporters); Eurofins Panlabs (kinases)
T8 sequence (P36888 27-993): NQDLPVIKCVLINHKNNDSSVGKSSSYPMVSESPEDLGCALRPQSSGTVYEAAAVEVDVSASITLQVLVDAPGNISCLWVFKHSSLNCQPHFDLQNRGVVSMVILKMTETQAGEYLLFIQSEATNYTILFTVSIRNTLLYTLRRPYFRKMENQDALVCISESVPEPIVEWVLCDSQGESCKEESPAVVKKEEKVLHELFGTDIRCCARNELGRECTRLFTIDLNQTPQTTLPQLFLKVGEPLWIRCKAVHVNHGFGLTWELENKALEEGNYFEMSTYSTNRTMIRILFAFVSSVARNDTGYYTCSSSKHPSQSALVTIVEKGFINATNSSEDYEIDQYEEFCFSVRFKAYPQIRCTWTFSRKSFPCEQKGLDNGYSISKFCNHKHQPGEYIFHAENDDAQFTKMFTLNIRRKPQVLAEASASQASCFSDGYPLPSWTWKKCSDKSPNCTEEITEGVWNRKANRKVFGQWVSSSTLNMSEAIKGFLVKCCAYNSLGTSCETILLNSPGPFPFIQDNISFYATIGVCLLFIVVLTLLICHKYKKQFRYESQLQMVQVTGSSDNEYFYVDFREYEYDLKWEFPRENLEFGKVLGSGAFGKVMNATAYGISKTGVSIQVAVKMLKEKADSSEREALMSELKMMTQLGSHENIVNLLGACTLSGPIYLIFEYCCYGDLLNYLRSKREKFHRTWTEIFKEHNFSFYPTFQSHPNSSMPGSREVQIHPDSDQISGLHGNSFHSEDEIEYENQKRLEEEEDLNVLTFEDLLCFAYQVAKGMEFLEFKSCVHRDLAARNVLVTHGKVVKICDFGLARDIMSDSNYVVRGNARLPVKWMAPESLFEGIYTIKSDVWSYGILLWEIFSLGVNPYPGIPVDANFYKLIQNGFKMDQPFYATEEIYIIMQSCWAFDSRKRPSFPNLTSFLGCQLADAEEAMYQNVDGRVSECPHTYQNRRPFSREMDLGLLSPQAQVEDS
Description: as §3

ADRB2 = ADRB2 (Homo sapiens, UniProt P07550); assay: GPCR panel, cAMP or calcium FLIPR assays; assay type: cell-based
Chain of ADRB2 (P07550 whole entry, species assumed): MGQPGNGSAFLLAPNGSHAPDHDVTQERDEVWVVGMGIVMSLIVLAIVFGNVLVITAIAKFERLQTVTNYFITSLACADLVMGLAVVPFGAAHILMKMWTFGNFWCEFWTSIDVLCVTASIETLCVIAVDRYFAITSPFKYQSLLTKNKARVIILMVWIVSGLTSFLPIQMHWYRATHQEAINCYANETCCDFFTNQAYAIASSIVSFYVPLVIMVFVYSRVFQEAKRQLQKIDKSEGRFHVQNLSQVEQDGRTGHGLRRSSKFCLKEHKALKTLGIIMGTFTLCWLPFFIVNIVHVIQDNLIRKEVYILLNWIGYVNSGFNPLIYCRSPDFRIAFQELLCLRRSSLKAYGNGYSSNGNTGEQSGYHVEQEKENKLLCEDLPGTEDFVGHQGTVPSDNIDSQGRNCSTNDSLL
Description: as §4

[5] = plasma (5-fold diluted, extrapolated), calculated for 5-fold dilution, read-out: concentration in 5-fold diluted plasma
[6] = plasma, mean ± SD, n=10, read-out: concentration in undiluted plasma

CC1CCCN1C(=O)c1nc(C(=O)NCC(C)(C)O)sc1-c1ccc(C(O)(C(F)(F)F)C(F)(F)F)c(Cl)c1Cl (stereo not shown) [JNJ-61803534]
IC50 [1]: > 30 µM
inhibition at 1 µM (ORL1 (h) (NOP)): < 10%
inhibition at 10 µM (ORL1 (h) (NOP)): < 10%
inhibition at 1 µM (5HT2B): < 10%
inhibition at 10 µM (5HT2B): 36.8%
IC50 (CAR): > 1.5 µM
activity at 1 µM (Plk3(h)): 120%
activity at 10 µM (Plk3(h)): 114%
inhibition at 1 µM (5-HT3 (h)): < 10%
inhibition at 10 µM (5-HT3 (h)): < 10%
activity at 1 µM (ROCK-I(h)): 108%
activity at 10 µM (ROCK-I(h)): 110%
maximum inhibition of ex vivo stimulated IL-17A production as compared to placebo ([2]; 100 mg single dose, fasted (cohort 3)): 45%
maximum inhibition of ex vivo stimulated IL-17A production as compared to placebo ([2]; 200 mg single dose (cohort 4)): 54%
IL-17A inhibition ([2]; 10 and 30 mg doses): did not appear to show a separation from placebo
concentration at 1 h [3, 5]: 10 ± 2.8 µM
concentration at 2 h [3, 5]: 6.1 ± 3.1 µM
concentration at 4 h [3, 5]: 5 ± 1.7 µM
concentration at 7 h [3, 5]: 2.3 ± 0.5 µM
concentration at 12 h [3, 5]: 0.86 ± 0.4 µM
concentration at 18 h [3, 5]: 0.24 ± 0.1 µM
concentration at 1 h [3, 6]: 31000 ng/mL and 49.8 µM
concentration at 2 h [3, 6]: 18900 ng/mL and 30.4 µM
concentration at 4 h [3, 6]: 15500 ng/mL and 24.9 µM
concentration at 7 h [3, 6]: 11.7 µM and 7280 ng/mL
concentration at 12 h [3, 6]: 4.3 µM and 2670 ng/mL
concentration at 18 h [3, 6]: 1.2 µM and 759 ng/mL
mode of action on PXR (PXR): possibly partial modulator
IC50 (PXR; agonist and antagonist mode): 0.34 µM
AUC(0-t) ([4]; female): 376 µg·h/mL
Cmax ([4]; female): 24.2 µg/mL
AUC(0-t) ([4]; male): 310 µg·h/mL
Cmax ([4]; male): 29.6 µg/mL
NOAEL at 1 month ([4]; both sexes, 1 month oral, highest dose tested, read-out: no-observed-adverse-effect level (NOAEL)): 400 mg/kg/day
lymphocyte apoptosis in thymus (Sprague–Dawley rats): dose-dependent lymphocyte apoptosis in thymus was observed
EC50 (5HT2C; agonist): > 10 µM
IC50 (5HT2C; antagonist): > 10 µM
EC50 (ADRA1A; agonist): > 10 µM
IC50 (ADRA1A; antagonist): > 10 µM
inhibition at 1 µM (A1 (h)): < 10%
inhibition at 10 µM (A1 (h)): < 10%
EC50 (V1A; agonist): > 10 µM
IC50 (V1A; antagonist): > 10 µM
EC50 (A2A; agonist): > 12.5 µM
IC50 (A2A; antagonist): > 12.5 µM
activity at 1 µM (Flt3(h)): 84%
activity at 10 µM (Flt3(h)): 103%
EC50 (ADRB2; agonist): > 12.5 µM
IC50 (ADRB2; antagonist): > 12.5 µM
